Target: T1, mutant integrin CD11bE320A/CD18 (Homo sapiens, UniProt P11215, E336A)
T1 construct: expressed in transfected cells; host or cells: K562 (ATCC)
Assay: HTS cell adhesion assay, K562 E320A cells on immobilized fibrinogen
Assay type: cell-based
Conditions: Table 3, adhesion to fibrinogen, five point dose-response
Description: K562 cells stably expressing CD11c/CD18 (K562 CD11c/CD18) were generated similarly. […] K562 cells stably transfected with mutant integrin CD11bE320A/CD18 (K562 E320A) were generated according to literature protocols. All cell lines were maintained in Iscove's Modified Dulbecco's Medium (IMDM) supplemented with 10% heat-inactivated fetal bovine serum, 50 IU/mL penicillin and streptomycin and 0.5 mg/mL G418.
Cell adhesion assays with immobilized ligands were performed using the general protocol previously described and as illustrated in FIG. 1 [33]. Assays with all different K562 cell lines (K562, K562 CD11b/CD18, K562 CD11c/CD18 and K562 E320A) were performed in an identical fashion. Briefly, 384-well microplates (Corning 3700) were coated with 15 μg/mL fibrinogen (Fg) ligand in PBS^++ overnight at 4° C. At the same time, anti-CD18 (IB4) mAb was also coated. Subsequently, the coated wells were washed with 1% nonfat milk in TBS at room temperature for 1 hour. Next, the wells were washed 3 times with TBS, and the coated microplates were used in the HTS assays.
K562 CD11b/CD18, K562 CD11bE320A/CD18 and K562 CD11c/CD18 cells were washed with TBS, and cells were transferred to the Fg-coated wells of microplates in the assay buffer (Ca^2+ and Mg^2+ for physiological condition, Mn^2+ as the Positive control). A 1 μL aliquot of the compounds were transferred to each washed well with multichannel pipet from the 384-well plates.
The assay plates were incubated at 37° C. in the presence of small-molecule compounds for 30 min. To dislodge the non-adherent cell, the assay plates were gently inverted and kept in inverted position for 20 min at room temperature.
The cells were fixed with 37% formaldehyde in a small volume and the plates were kept inverted for 1 h. Upon the fixation, the solutions in the well were discarded. Next, the cells were fluorescently labeled with DAPI (0.5 μM final in TBS with 0.1% Triton X-100) and the quantitated with “Opera High Content Screening System” (Perkin Elmer).
Cell-adhesion under positive and negative control conditions was used to define the activity scale; signal corresponding to the number of non-small molecule treated cells adherent in activating buffer condition (in the presence of Mn^2+ ions as agonist, PC) was considered maximum (100% binding) and the signal corresponding to the number of non-small molecule treated cells adherent in basal buffer condition (in the presence of 1 mM each of Ca^2+ and Mg^2+, NC) was considered minimum (0% binding).

T1 sequence (P11215 17-1152 E336A): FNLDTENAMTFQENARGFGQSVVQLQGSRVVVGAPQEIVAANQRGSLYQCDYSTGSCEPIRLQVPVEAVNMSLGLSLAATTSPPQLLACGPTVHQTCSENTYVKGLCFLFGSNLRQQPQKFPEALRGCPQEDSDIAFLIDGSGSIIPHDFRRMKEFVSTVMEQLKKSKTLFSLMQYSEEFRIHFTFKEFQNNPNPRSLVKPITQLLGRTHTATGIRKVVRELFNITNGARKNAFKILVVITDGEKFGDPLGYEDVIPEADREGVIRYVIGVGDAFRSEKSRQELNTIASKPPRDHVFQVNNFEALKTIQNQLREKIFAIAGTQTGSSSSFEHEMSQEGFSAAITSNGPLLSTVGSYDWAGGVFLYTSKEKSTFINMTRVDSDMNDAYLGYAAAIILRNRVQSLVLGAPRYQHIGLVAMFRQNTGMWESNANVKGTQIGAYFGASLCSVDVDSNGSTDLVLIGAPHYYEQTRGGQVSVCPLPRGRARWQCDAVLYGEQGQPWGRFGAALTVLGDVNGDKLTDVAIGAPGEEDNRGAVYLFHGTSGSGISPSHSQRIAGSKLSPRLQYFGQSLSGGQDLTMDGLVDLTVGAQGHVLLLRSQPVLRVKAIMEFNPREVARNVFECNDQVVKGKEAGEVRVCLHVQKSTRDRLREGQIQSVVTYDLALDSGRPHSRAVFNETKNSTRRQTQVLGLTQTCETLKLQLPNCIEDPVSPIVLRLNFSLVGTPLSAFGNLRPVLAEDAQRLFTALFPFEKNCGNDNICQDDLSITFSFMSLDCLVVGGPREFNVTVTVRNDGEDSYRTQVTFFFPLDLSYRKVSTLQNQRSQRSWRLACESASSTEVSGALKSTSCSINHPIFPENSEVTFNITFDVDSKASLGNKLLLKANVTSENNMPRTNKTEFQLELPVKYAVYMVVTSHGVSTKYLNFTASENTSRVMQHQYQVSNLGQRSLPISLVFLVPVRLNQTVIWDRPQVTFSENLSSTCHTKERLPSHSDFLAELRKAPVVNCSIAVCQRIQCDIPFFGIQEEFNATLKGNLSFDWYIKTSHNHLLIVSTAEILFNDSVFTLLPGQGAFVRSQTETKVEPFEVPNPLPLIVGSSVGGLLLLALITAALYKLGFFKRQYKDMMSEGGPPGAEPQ
T1 sequence (P05107 23-769 partner): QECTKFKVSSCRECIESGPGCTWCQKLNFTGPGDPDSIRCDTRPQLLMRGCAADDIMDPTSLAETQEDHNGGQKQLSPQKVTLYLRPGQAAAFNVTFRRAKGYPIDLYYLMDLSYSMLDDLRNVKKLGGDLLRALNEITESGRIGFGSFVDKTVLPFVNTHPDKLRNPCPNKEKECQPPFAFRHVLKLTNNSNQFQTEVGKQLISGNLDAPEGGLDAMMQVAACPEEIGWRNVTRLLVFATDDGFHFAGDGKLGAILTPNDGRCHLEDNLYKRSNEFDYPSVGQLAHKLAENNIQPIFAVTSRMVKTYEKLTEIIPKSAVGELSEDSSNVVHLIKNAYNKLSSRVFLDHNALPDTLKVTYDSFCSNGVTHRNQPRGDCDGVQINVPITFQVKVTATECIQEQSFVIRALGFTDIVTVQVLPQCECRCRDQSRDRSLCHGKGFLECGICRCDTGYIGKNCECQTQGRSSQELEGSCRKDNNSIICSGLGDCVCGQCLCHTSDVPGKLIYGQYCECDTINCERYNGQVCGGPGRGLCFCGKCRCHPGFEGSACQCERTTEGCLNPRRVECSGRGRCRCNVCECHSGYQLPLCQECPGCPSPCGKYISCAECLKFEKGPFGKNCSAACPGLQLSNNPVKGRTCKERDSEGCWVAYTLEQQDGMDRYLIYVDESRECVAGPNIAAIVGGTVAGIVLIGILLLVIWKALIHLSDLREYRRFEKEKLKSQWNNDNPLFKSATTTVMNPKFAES

EC50 | EC50 E320A | Compound
13.4 µM |  | Cc1ccc(NC(=O)COc2ccc(/C=C3/SC(=Nc4ccccc4)N(Cc4cccnc4)C3=O)cc2)cc1 [Compound 11840403]
13.7 µM |  | Cc1ccc(-c2cc(C(=O)Nc3ccc(S(=O)(=O)Nc4nccs4)cc3)c3ccccc3n2)c(C)c1 [Compound 1358622]
12.1 µM |  | Cc1oc(-c2ccc(F)cc2)cc1-c1nn2c(-c3ccoc3C)nnc2s1 [Compound 2145571]
12.1 µM |  | O=C(CSc1nc2sc3c(c2c(=O)n1-c1ccccc1)CCCC3)NCc1ccco1 [Compound 1322134]
18.3 µM |  | O=C(CC1Nc2ccccc2NC1=O)Nc1ccccc1 (centres unmarked) [Compound 2829724]
7.33 µM |  | COc1cccc(OCc2cc(/C=N/NC(=O)c3nc(Cl)c(Cl)c(N)c3Cl)ccc2OC)c1 [Compound 6881723]
10.4 µM |  | CSCCOC(=O)c1[nH]c2c(c1C)C(=O)CC(c1ccco1)C2 (centres unmarked) [Compound 3162305]
12.4 µM |  | COc1ccc(NC(=O)CCC(=O)OCC(=O)c2ccc(Oc3ccc([N+](=O)[O-])cc3)cc2)cc1 [Compound 2912337]
11.4 µM |  | O=C(NNC(=O)c1cccc(S(=O)(=O)N2CCN(c3ccccc3)CC2)c1)c1ccc(Cl)cc1 [Compound 4412067]
18 µM |  | CCOC(=O)c1sc(NC(=O)CSc2nnnn2-c2ccccc2)c(C(=O)OCC)c1C [Compound 2132989]
 | Infinite | N#Cc1cccc(NC(=O)CSc2ccc3c4c(cccc24)C(=O)c2ccccc2-3)c1 [Compound 4835204]
12.6 µM |  | CCOC(=O)C1CCN(S(=O)(=O)c2ccc(-c3nc4ccccc4s3)s2)CC1 [Compound 3241379]
0.315 µM |  | Nc1c(C(=O)Nc2cccc(Cl)c2Cl)sc2nc(-c3cccnc3)ccc12 [Compound 1976060]
14.5 µM |  | CC(=O)c1ccc(N2C(=O)C3C(C2=O)C(C(=O)c2ccc(Cl)cc2)N2CCCC32)cc1 (centres unmarked) [Compound 665589]
18.5 µM |  | C=CCOC(=O)C(C#N)c1nc2ccccc2nc1N1CCN(Cc2ccc3c(c2)OCO3)CC1 (centres unmarked) [Compound 660507]
12.1 µM |  | CCOc1ccc(-c2nnc3ccc(SCC(=O)Nc4nc5ccc(C)cc5s4)nn23)cc1 [Compound 12005911]
8.51 µM |  | CCOc1cc(/C=C2/N=C(c3ccc(C(C)(C)C)cc3)OC2=O)cc(Cl)c1OS(C)(=O)=O [Compound 2182821]
16.5 µM |  | O=c1cc(CN2CCN(c3cccc(Cl)c3)CC2)c2cc(O)c(-c3ccccc3)cc2o1 [Compound 3287222]
11.7 µM |  | COc1ccc(-c2nn(C)c(=O)c3ccccc23)cc1NC(=O)Cn1nc(C)c2ccccc2c1=O [Compound 1314910]
101 µM |  | COc1ccc(C(=O)Nc2ccc(N3CCCC3)cc2)cc1 [Compound 960708]

EC50 | EC50 E320A | Compound
13.4 µM |  | CC1=NN(c2nc(-c3ccc(C)cc3)cs2)C(=O)C1N=Nc1ccc2ccccc2c1 (centres unmarked) [Compound 3101589]
12.7 µM |  | O=C(Nc1nc(-c2ccncc2)cs1)c1ccco1 [Compound 2081288]
8.78 µM |  | C=CCN(CC=C)S(=O)(=O)c1ccc(C(=O)Nc2sc3c(c2C(N)=O)CCCCC3)cc1 [Compound 3395368]
11.1 µM |  | N#Cc1ccc(CSc2nnc(NC(=O)C3CC(=O)N(c4ccc5c(c4)OCCO5)C3)s2)cc1 (centres unmarked) [Compound 4831224]
43.6 µM |  | CCOC(=O)c1[nH]c2ccc(Cl)cc2c1NC(=O)/C=C/c1ccc2c(c1)OCO2 [Compound 1973614]
19.4 µM |  | NC(=O)c1cc(-c2ccccc2)sc1NC(=O)Cc1ccc(S(=O)(=O)N2CCOCC2)s1 [Compound 2121076]
9.08 µM |  | COc1ccc(C(=O)Nc2ccc(N3CCN(c4ccc(OC)cc4)CC3)c(C#N)c2)cc1 [Compound 3241486]
9.43 µM |  | Cc1csc(NC(=O)CSc2nc3sc(C)c(C)c3c(=O)[nH]2)n1 [Compound 650604]
8.18 µM |  | CCC1CCCCN1S(=O)(=O)c1ccc(S(=O)(=O)N2CCN(S(=O)(=O)CC)CC2)cc1 (centres unmarked) [Compound 651007]
5.17 µM |  | Cc1ccc2sc(-c3ccc(NC(=O)CCN4C(=O)c5ccccc5C4=O)cc3)nc2c1 [Compound 1193278]
15.4 µM |  | Cc1ccc(/C=C2\SC(=S)N(CC(=O)Nc3ncc(Cc4ccccc4Cl)s3)C2=O)cc1 [Compound 1871747]
8.23 µM |  | Cc1cc(C)cc(NC(=O)Cn2c(=O)oc3cc(S(=O)(=O)N4CCC(C)CC4)ccc32)c1 [Compound 9551541]
18.8 µM |  | COc1ccc(N=c2oc3ccc(OC)cc3cc2-c2nc3ccccc3[nH]2)cc1 [Compound 1212121]
8.47 µM |  | O=C(Nc1ccc(Br)cc1Cl)c1cnccn1 [Compound 1245695]
9.85 µM |  | COc1ccc(C(=O)CSc2nnc(NC(=O)C3CC(=O)N(c4ccccc4)C3)s2)cc1 (centres unmarked) [Compound 12006105]
19.1 µM |  | O=C(CSc1nc2ccccc2c2nc3ccccc3n12)NCc1ccco1 [Compound 3238872]
10.2 µM |  | COc1ccc(/C=C2/C(=O)N(c3nc4ccccc4s3)N=C2CSc2ccc(Cl)cc2)cc1 [Compound 5727347]
9.7 µM |  | CCS(=O)(=O)N1CCC(C(=O)NCCCN2CCCCCC2)CC1 [Compound 3244583]
12.4 µM |  | COCCNC(=S)N/N=C/c1ccc(OCc2ccc(C(=O)OC)cc2)cc1 [Compound 6892710]
 | Infinite | Cc1ccc(/C=C/C(=O)Nc2nnc(SCc3ccc(C#N)cc3)s2)o1 [Compound 2126150]

EC50 | EC50 E320A | Compound
11.7 µM |  | O=C(N/N=C\c1ccc(-c2ccc([N+](=O)[O-])cc2)o1)c1ccc2c(c1)OCO2 [Compound 5497396]
6.69 µM |  | Cc1ccc(-c2noc(C3CCCN(S(=O)(=O)c4ccc(S(=O)(=O)N(C)C)cc4)C3)n2)o1 (centres unmarked) [Compound 3226283]
22.3 µM |  | O=C(Nc1ccc(Cl)cc1)[C@@H]1[C@@H]2C(=O)N(c3ccc(Cl)cc3Cl)C(=O)[C@@H]2[C@H]2C=CC=NN21 [Compound 9551824]
568 µM |  | O=C(Nc1ccc2nn(-c3ccccc3)nc2c1)c1ccc2c(c1)OCO2 [Compound 2208079]
12.2 µM |  | Cc1cc(C)c(NC(=O)Cn2c(=O)n(Cc3ccco3)c(=O)c3ccccc32)c(C)c1 [Compound 3237376]
35.7 µM |  | Cc1cc(=O)oc2cc(OCC(=O)N/N=C/c3ccccc3[N+](=O)[O-])ccc12 [Compound 9619223]
9.81 µM |  | Cc1[nH]nc2ncc(C(=O)c3cc(Cl)cc(Cl)c3O)cc12 [Compound 2421294]
8.25 µM |  | Cc1oc(-c2ccc(Cl)cc2)cc1-c1nn2c(-c3ccoc3C)nnc2s1 [Compound 2145570]
7.85 µM |  | CN(CCC#N)C(=O)COC(=O)c1c2c(nc3ccccc13)/C(=C/c1ccco1)CC2 [Compound 5801934]
8.94 µM |  | CCn1c(COc2ccc3c(c2)CCCC3)nnc1SCC(=O)Nc1ccc(C(=O)OC)cc1 [Compound 2958500]
9.05 µM |  | COc1ccccc1CNC(=O)c1ccc2nc3[nH]c4ccccc4c3nc2c1 [Compound 6079611]
62.5 µM |  | COc1ccc(-n2c(C)cc(C(=O)COC(=O)c3cc(NC(=O)c4cccs4)c(OC)c(OC)c3)c2C)cc1 [Compound 2108710]
14.2 µM |  | CC1CCN(Cc2ccc(NC(=O)C3CCN(c4nnc(-n5cccc5)s4)CC3)cc2)CC1 [Compound 5309189]
28.3 µM |  | Cc1cc(C=C2C(=O)CCCC2=O)c(C)n1-c1ccccc1 [Compound 2313216]
19.3 µM |  | Cc1ccc(-c2cc(C(=O)N/N=C/C=C/c3ccco3)c3ccccc3n2)cc1C [Compound 1764811]
10.8 µM |  | COc1ccccc1-c1cc(C(=O)Nc2sc3c(c2C#N)CCC(C)C3)c2ccccc2n1 (centres unmarked) [Compound 3272728]
10.1 µM |  | Cc1ccccc1-c1ccc(Nc2ccc(N3CCOCC3)cc2)nn1 [Compound 646977]
 | Infinite | CCCC(=O)Nc1ccc(-c2cnc(-c3ccc(NC(=O)CCC)cc3)nc2)cc1 [Compound 1272696]
13.3 µM |  | COc1ccc2nc(O)c(CN(C3CCCCC3)C(c3nnnn3Cc3ccco3)C(C)C)cc2c1 (centres unmarked) [Compound 650199]
11.4 µM |  | COc1ccccc1N1CSC2=C(C#N)C(c3ccc(SC)cc3)CC(=O)N2C1 (centres unmarked) [Compound 3160888]

Compound | EC50 | EC50 E320A
O=C1NC(=S)N(C2CC2)C(=O)/C1=C/c1ccc2c(c1)CCN2CCCCl [Compound 1993471] | 164 µM | 
O=C(CSc1nnc2c3ccccc3c3ccccc3c2n1)Nc1ccccc1F [Compound 6402388] | 11.2 µM | 
Cc1cc(C)cc(-n2c3nc4ccccc4nc3c3c(=O)n(Cc4ccco4)cnc32)c1 [Compound 660761] | 8.8 µM | 
O=C(Cn1c2ccccc2c(=O)c2cc([N+](=O)[O-])ccc21)Nc1ccccc1Cl [Compound 15944880] | 10.1 µM | 
CCCCN1C(=O)/C(=C/c2ccc(N3CCCCCC3)cc2)C(=O)NC1=S [Compound 2067755] | 78.3 µM | 

— US20180319865A1, “Identification of Novel Small Molecule Beta2 Integrin Agonists” (Rush University Medical Center, priority 2016, published 2018)
